From article PMC6089501 (Journal of Medicinal Chemistry, 2018)
In brackets after ≈: the same amount, converted by molar mass. Several values for one entry are separate records, joined by “and”; a condition that tells them apart may be missing. Equal entries are not always repeated. Where two headings read alike, the source gives them in different places.

Tests used:
[1] = physchem
[2] = physchem; remark: listed apart in the source
Protocol: (§1) Samples are stirred for 20 h and filtered through a 0.7 μm GF filter. The filtrate was analyzed by HPLC assay for concentration against DMSO standard curve.[40]

[3] = female, C57 Black, mouse, in vivo, iv, 3 mg/kg
Protocol: (§2) Test compound was dosed as a bolus solution intravenously at 3 mg of free base/kilogram (dose volume 5 mL/kg; dose vehicle Saline or 10% DMSO; 40% PEG400; 50% saline) to female C57 Black (n = 3) or dosed orally by gavage as a solution at 10 mg of free base/kilogram (dose volume 10 mL/kg; dose vehicle 10% DMSO; 40% PEG400; 50% distilled water) to female C57 Black (n = 3/dose level). Blood samples were taken from each mouse tail vein at predetermined time points postdose, mixed with two volumes of distilled water, and stored frozen until UPLC/MS/MS analysis. Pharmacokinetic parameters were derived from the blood concentration time curve using PK Solutions software v 2.0 (Summit Research Services, USA).

[4] = system: Vero cells; settings: read-out: VERO IC50
Protocol: (§3) Compounds were solubilized in DMSO and assayed as a 10-point 3-fold serial dilution. Compounds were incubated with cells for 2 days at 37 °C, 5% CO2. CellTiter-Glo Reagent (Promega) was added and relative luminescent units (RLU) measured.

[5] = system: M. tuberculosis H37Rv; parameters: species or system Mycobacterium tuberculosis; settings: in vivo
[6] = in vivo; settings: female, C57 Black, mouse; for AUC: iv, 3 mg/kg; for bioavailability: po, 10 mg/kg
Protocol: as §2

[7] = in vitro; settings: dog, MDCK-MDR1
[8] = system: M. tuberculosis H37Rv; assay: microbe, parasite or virus in culture; type: cell-based, Mycobacterium tuberculosis; settings: for MIC / MIC90 / IC90: Mycobacterium tuberculosis, H37RV; for MIC90: read-out: MIC (MIC90); for IC90: read-out: TB-IC90_OD GEOM_MEAN
[9] = in vivo; settings: Sprague-Dawley, rat; for AUC(0-t) at 24 h: AUC 0–24
Protocol: (§4) Test compound was dosed orally by gavage at 5 mg of free base/kilogram (dose volume 5 mL/kg; dose vehicle 1.0% carboxy methyl cellulose, CMC) to male Sprague–Dawley Rats (n = 1 per time point). At predetermined time points, blood samples (100 μL) were taken from the hepatic portal vein into a tube containing EDTA. Immediately afterward, the remaining blood was taken by cardiac puncture into a separate tube containing EDTA to determine the concentration of compound reaching the systemic circulation. The blood was mixed with two volumes of distilled water and stored frozen until UPLC/MS/MS analysis. Pharmacokinetic parameters were derived from the blood concentration time curve using PK Solutions software v 2.0 (Summit Research Services, USA).

[10] = pH 2/6/7.4
Protocol: as §1

[11] = system: Vero cells; assay: cells; settings: Chlorocebus sabaeus, read-out: VERO IC50
Protocol: as §3

[12] = C57 Black, mouse, in vivo, po
Protocol: Analysis of 37 in Mouse Blood samples (10mg/kg PO and 3mg/kg IV)

[13] = Sprague-Dawley, rat, in vivo
Protocol: as §4

[14] = for Cli mouse / scaled Clpre: female, CD1, mouse, pH 7.4
[15] = system: Madin Darby Canine Kidney (MDCK); settings: for P-glycoprotein (P-gp) efflux (in words) / permeability (in words): MDCK-MDR1; for P-gp Efflux B→ A/A → B: dog, MDCK
[16] = target: CYP2C9 (Homo sapiens, UniProt P11712); assay: in vitro
[17] = target: T1, CYP 1A2 (Homo sapiens, UniProt P05177); assay: CYP inhibition 1A2
T1 sequence (P05177 1-516): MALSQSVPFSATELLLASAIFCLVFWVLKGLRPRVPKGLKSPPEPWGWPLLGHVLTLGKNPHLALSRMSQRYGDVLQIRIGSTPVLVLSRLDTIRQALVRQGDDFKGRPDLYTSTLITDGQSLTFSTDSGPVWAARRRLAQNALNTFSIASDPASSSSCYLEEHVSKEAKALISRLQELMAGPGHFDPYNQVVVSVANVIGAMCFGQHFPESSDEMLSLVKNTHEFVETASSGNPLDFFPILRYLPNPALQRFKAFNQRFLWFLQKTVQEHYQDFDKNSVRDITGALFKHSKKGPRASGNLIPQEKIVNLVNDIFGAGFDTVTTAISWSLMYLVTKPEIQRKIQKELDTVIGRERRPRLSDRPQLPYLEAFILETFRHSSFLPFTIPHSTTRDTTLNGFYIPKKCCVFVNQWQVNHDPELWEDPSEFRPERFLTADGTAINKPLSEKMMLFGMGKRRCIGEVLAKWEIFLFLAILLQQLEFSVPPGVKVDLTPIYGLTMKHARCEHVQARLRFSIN

[18] = target: CYP2C19 (Homo sapiens, UniProt P33261); assay: in vitro
[19] = in vitro; settings: African green monkey, Vero cytotoxicity
Protocol: as §3

[20] = target: CYP 2D6 (Homo sapiens, UniProt P10635); assay: biochemical
[21] = microsomes

Sequence of CYP2C9 (P11712 whole entry): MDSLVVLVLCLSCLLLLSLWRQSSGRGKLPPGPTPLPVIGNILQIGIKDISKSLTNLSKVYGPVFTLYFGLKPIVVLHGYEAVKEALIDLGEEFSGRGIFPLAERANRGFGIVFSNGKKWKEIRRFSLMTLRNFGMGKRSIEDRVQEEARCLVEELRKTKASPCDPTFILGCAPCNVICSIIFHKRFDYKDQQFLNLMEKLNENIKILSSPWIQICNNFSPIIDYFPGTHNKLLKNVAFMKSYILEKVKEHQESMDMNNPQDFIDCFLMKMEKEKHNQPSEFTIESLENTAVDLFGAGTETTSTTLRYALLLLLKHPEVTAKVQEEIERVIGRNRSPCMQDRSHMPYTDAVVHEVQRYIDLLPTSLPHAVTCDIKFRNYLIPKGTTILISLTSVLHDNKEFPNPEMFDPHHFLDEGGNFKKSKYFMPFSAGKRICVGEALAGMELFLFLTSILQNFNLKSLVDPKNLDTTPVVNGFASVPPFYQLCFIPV
Sequence of CYP 2D6 (P10635 whole entry): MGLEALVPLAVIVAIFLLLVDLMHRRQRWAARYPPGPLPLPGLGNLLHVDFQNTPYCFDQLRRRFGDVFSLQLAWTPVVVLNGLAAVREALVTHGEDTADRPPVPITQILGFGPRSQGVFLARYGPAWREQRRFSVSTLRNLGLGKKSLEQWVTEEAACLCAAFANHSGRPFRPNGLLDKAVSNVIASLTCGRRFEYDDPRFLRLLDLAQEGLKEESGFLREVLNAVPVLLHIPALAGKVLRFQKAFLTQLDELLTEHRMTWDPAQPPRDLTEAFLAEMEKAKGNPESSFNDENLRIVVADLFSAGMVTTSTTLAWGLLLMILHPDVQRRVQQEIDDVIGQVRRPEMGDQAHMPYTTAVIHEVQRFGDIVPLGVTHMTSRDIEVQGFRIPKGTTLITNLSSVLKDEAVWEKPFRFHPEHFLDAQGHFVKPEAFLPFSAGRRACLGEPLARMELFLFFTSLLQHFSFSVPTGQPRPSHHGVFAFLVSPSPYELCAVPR
Sequence of CYP2C19 (P33261 whole entry): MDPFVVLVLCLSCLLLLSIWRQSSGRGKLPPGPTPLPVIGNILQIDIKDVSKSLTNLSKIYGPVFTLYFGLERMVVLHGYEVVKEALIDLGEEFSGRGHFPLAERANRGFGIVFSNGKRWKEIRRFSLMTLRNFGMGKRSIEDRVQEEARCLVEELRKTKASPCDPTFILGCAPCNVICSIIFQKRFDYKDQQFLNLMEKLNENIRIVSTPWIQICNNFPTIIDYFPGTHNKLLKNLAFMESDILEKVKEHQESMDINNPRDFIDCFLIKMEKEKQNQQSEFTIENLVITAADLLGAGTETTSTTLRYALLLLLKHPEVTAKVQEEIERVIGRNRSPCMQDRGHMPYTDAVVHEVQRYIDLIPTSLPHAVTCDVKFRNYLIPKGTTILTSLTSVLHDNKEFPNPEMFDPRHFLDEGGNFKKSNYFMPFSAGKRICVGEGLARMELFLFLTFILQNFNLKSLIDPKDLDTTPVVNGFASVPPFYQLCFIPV

NC(=O)c1sc(N2CCOCC2)cc1OCCc1ccc(OC(F)(F)F)cc1 [Compound 37, 5-Morpholino-3-[2-[4-(trifluoromethoxy)phenyl]ethoxy]thiophene-2-carboxamide]
chromatographic logD [1]: 2.68
solubility ([2]; pH 2): 2 µg/mL (≈ 4.8 µM)
solubility ([2]; pH 6): 1 µg/mL (≈ 2.4 µM)
solubility ([2]; pH 7.4): 1 µg/mL (≈ 2.4 µM)
CLB [3]: 29 mL/min/kg
IC50 [4]: 37 µM
growth of the bacteria in the lungs compared to untreated mice (in words) [5]: able to inhibit the growth of the bacteria in the lungs
log CFUs per mouse (lungs), individual mice [5]: 6.1 log CFU and 5.8 log CFU
log CFUs per mouse (lungs), mean [5]: 6.0 log CFU
log reduction of colony forming unit (CFU) counts in the lungs ([5]; po, 100 mg/kg): 0.8 log
AUC [6]: 1730 ng·h/mL
bioavailability [6]: 18%
Papp A→B [7]: 25 ×10⁻⁶ cm/s
Papp B→A [7]: 20 ×10⁻⁶ cm/s
MIC ([8]; read-out: H37Rv MIC): 0.083 µg/mL
MIC90 [8]: 0.24 µM (≈ 0.0999 µg/mL)
MIC ([8]; read-out: MIC WT): 0.24 µM
IC90 [8]: 0.217 µM
AUC(0-t) at 24 h ([9]; iv, 1 mg/kg): 550 ng·h/mL
Tmax ([9]; male, po, 5 mg/kg): 60 min
AUC(0-t) at 24 h ([9]; male, po, 5 mg/kg): 583 ng·h/mL
Cmax ([9]; male, po, 5 mg/kg, Cmax): 200 ng/mL
solubility in HTSA (in words) [10]: poor solubility
IC50 [11]: 39 µM
% Peak Area, metabolite A N or S-oxide [12]: 3%
% Peak Area, metabolite B De-ethylation + oxidation [12]: 3%
% Peak Area, metabolite C De-ethylation [12]: 2%
% Peak Area, metabolite D Oxidation (x3) [12]: 6%
% Peak Area, metabolite E Hydroxylation [12]: 27%
Clb ([13]; iv, 1 mg/kg): 30
T1/2 ([13]; iv, 1 mg/kg): 30 min
Cmax ([13]; male, po, 5 mg/kg): 140 ng/mL
F ([13]; male, po, 5 mg/kg): 12%
AUC 0–24 ([13]; male, po, 5 mg/kg, 24 h): 19
Cli mouse [14]: 8 mL.min^–1.g^–1
scaled Clpre [14]: 76 mL/min/kg
CL mouse MEAN ([14]; mouse, microsomes): 8.159 mL/min/g
in vitro mouse Clint ([14]; mouse, microsomes): 8 mL/min/g
P-glycoprotein (P-gp) efflux (in words) [15]: no likely P-glycoprotein (P-gp) efflux issues
permeability (in words) [15]: good permeability
P-gp Efflux B→ A/A → B [15]: 0.8

NC(=O)c1sc(N2CCOCC2)cc1OCCc1ccccc1 [Compound 1, 5-Morpholino-3-phenethoxythiophene-2-carboxamide]
CLB [3]: 10 mL/min/kg
T1/2 [3]: 42 min
IC50 [16]: 7.94 µM
AUC [6]: 4830 ng·h/mL
bioavailability [6]: 0.5%
IC50 [17]: > 10 µM
Papp A→B [7]: 45 ×10⁻⁶ cm/s
Papp B→A [7]: 37 ×10⁻⁶ cm/s
IC50 [18]: 1.26 µM
MIC ([8]; read-out: H37Rv MIC): 0.13 µg/mL
MIC90 [8]: 0.72 µM (≈ 0.239 µg/mL)
MIC ([8]; read-out: MIC WT): 1.3 µM
IC90 [8]: 0.608 µM
MIC (H37RvLP) ([8]; n = 14): 0.72 ± 0.30 (n = 14)
IC50 [19]: > 100 µM
IC50 [11]: > 100 µM
IC50 [20]: 10 µM
Cli mouse [14]: 19 mL.min^–1.g^–1
scaled Clpre [14]: 81 mL/min/kg
CL mouse MEAN ([14]; mouse, microsomes): 18.63 mL/min/g
Microsomal clearance, Mouse ([14]; mouse, microsomes): Mouse = 19 mL·min^−1·g^−1
in vitro mouse Clint ([14]; mouse, microsomes): 19 mL/min/g
Microsomal clearance, Human [21]: Human = 3.5 mL·min^−1·g^−1
P-glycoprotein (P-gp) efflux (in words) [15]: no likely P-glycoprotein (P-gp) efflux issues
permeability (in words) [15]: good permeability
P-gp Efflux B→ A/A → B [15]: 0.8
